Source: patent US12281084B2, “Acetyl-CoA synthetase 2 (ACSS2) inhibitors and methods using same” (The Wistar Institute, priority 2019, dated 2025)

System: BT474 cells
Experiment: 13C2-acetate tracing in BT474 cells
Format: cell-based, human
Experimental: All metabolomic experiments were performed in serum-like modified Eagle's medium (SMEM). SMEM contains 54 different nutrients that are found in the bloodstream at concentrations that are physiologically relevant to humans. SMEM was supplemented with 10% or 1% fetal bovine serum (FBS; Life Technologies). Cells were grown in normoxia (atmospheric oxygen) or hypoxia (1% oxygen) while being incubated in uniformly labeled ^13C2-acetate (0.100 mM; Cambridge Isotope Laboratories). Lengths of incubation are described in the figure legends. For extraction of metabolites from cultured cells, SMEM medium was aspirated and cells were washed once in ice-cold PBS. Metabolites were extracted by adding a solution of LC-MS grade methanol/acetonitrile/water (5:3:2) to the well. Plates were incubated at 4° C. for 5 minutes on a rocker and then the extraction solution was collected. The metabolite extract was cleared by centrifugation at 15,000×g for 10 minutes at 4° C. Supernatants were transferred to LC-MS silanized glass vials with PTFE caps and either run immediately on the LC-MS or stored at −80° C. […]
LC-MS analysis was performed on a Q Exactive Hybrid Quadrupole-Orbitrap HF-X MS (ThermoFisher Scientific) equipped with a HESI II probe and coupled to a Vanquish Horizon UHPLC system (ThermoFisher Scientific). […] Samples were analyzed in full MS scan with polarity switching at scan range 65 to 975 m/z; 120,000 resolution; automated gain control (AGC) target of 1E6; and maximum injection time (max IT) of 100 milliseconds. Identification and quantitation of metabolites was performed using an annotated compound library and TraceFinder 4.1 software. […]
The ^13C2-acetate tracer studies were repeated in BT474 and MDA-MB-468 cells and polar metabolites were isolated in order to analyze carbon-13 labeling of the cytosolic metabolite UDP-N-acetylglucosamine (UDP-GlcNAc) and the mitochondrial metabolite citrate. Citrate is a readout of ACSS1 and ACSS3 activity in the cells since they are the mitochondria localized AcCoA synthetase family members (FIG. 11A). […]

`CCn1c(C(O)(c2ccccc2)c2ccccc2)nc2ccc(C(=O)NC[C@@H](C)O)cc21` [VY-3-135, (R)-1-ethyl-2-(hydroxydiphenylmethyl)-N-(2-hydroxypropyl)-1H-benzo[d]imidazole-6-carboxamide] was tested, and the “incorporation of 13C2-acetate into UDP-GlcNAc” value (BT474 cells (FIG. 11C)) was “able to block incorporation of ^13C2-acetate into UDP-GlcNAc to nearly the levels of unlabeled cells”, the “incorporation of 13C2-acetate into citrate” value (BT474 cells, H1, 24 hr (FIG. 2D), readout of ACSS1 and ACSS3) was “did not decrease incorporation of ^13C2-acetate into citrate” and the “use of acetate as a substrate for fatty acid synthesis (13C2-acetate into palmitate)” value (BT474 cells, hypoxia and low lipid medium, 24 hours (FIG. 2C)) was “markedly inhibits the use of acetate as a substrate for fatty acid synthesis at low nanomolar concentrations”.
